For 21 compounds, GI50 and TGI results are on record in PubChem BioAssay (NCI).

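Dose response: 5 concentrations. Exposure: 48 h. Format: 96-well plates. Endpoint: linear interpolation; highest concentration if not reached. GI50: concentration for 50% inhibition of growth. The concentration for full growth arrest is given as TGI.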 Some results are limits rather than exact numbers.

What all share (experiment): growth of human tumour cells (NCI), 48 h
Assay [1] has as its system 786-0 renal.
Assay [2] relates to A498 renal.
Assay [3] has as its system ACHN renal.
Assay [4] deals with HOP-92 NSCLC.
The test system of assay [5] is MALME-3M melanoma.
For assay [6], the system named is NCI-H522 lung.
Assay [7] deals with RXF 393 renal.
Assay [8] has as its system SF-268 CNS.
Assay [9] relates to SNB-75 CNS.

`FC(F)(F)Oc1cccc(-c2cnc3ccc(-c4ccncc4)nn23)c1`: the GI50 in assay [1] was 1.75 µM; in [2] it was 0.365 µM; in [3], 0.447 µM; in assay [4] it was 1.8 µM; in [5] it was 2.35 µM; in [6], 0.771 µM. Also, the GI50 was 0.398 µM in assay [7], 2.22 µM in assay [8] and 1.73 µM in assay [9]. Also, the TGI in [1] was over 100 µM; in assay [2] it was 2.42 µM; in [3], 4.8 µM; in assay [4], 7.82 µM; in [5] it was over 100 µM; in assay [6], 2.82 µM. The TGI was 2.41 µM in [7], over 100 µM in assay [8] and 5.14 µM in assay [9].

As to `Cc1c2cc[n+](C)cc2c(C)c2c1sc1ccccc12`, the TGI in assay [1] came to 2.9 µM; in assay [2], 13.6 µM; in [3] it was 33.7 µM; in [4], 9.75 µM; in assay [5], 1.92 µM; in assay [6], 2.4 µM. Moreover, the TGI in assay [7] turned out to be 12 µM; in assay [8], 1.14 µM; in [9], 0.804 µM.

For `CCCCON(OC(=O)c1ccccc1)C(=O)c1ccccc1`, the GI50 in assay [1], in assay [2], in assay [3], in [4], in assay [5] and in assay [6] was over 100 µM throughout. In addition, the GI50 in assay [7], in assay [8] and in assay [9] was over 100 µM throughout. Besides, the TGI in [1], in [2], in [3], in assay [4], in [5] and in assay [6] was over 100 µM throughout. The TGI in [7], in [8] and in assay [9] was over 100 µM throughout.

Turning to `CC(=O)NCCc1c2c(c3nccc4c3c1Nc1ccccc1-4)OCS2`, the GI50 in assay [1] is 3.66 µM; in assay [2] it was 0.698 µM; in assay [3], 0.199 µM; in assay [4] it was 2.02 µM; in [5], 7.28 µM; in assay [6], 0.936 µM. For the same compound, the GI50 in assay [7] was 3.02 µM; in assay [8], 1.56 µM; in [9], 15.3 µM. Also, the TGI was found to be 28.9 µM in [1]; 19.1 µM in assay [2]; 3.27 µM in assay [3]; 21 µM in [4]; 24.7 µM in assay [5]; 3.11 µM in assay [6]. Moreover, the values for the TGI in assay [7], in [8] and in assay [9] were 13.5 µM, 11.4 µM and 70.4 µM, respectively.

For the compound `Cn1cc(-c2ccc3c(Nc4cccc(NC(=O)Nc5cccc(F)c5)c4)ncnc3c2)cn1`, the GI50 in assay [1] was 1.87 µM; in assay [2], 0.0532 µM; in [3], 2.17 µM; in [4], 2.23 µM; in assay [5], 1.29 µM; in assay [6] it was 1.22 µM. The results for the GI50 in assay [7], in assay [8] and in assay [9] were 1.2 µM, 1.64 µM and 0.0391 µM, respectively. In addition, the TGI in [1] worked out at 4.46 µM; in assay [2] it was 2.99 µM; in assay [3] it was 13.2 µM; in assay [4] it was 9.08 µM; in assay [5], 3.79 µM; in assay [6], 15.9 µM. For the same compound, the TGI in assay [7] was determined as 3.83 µM; in assay [8], 11.2 µM; in assay [9] it was 9.57 µM.

Take `COc1ccc2[nH]c(=O)c3c4ccccc4cn3c2c1`: the GI50 is 0.553 µM in assay [1]; 0.383 µM in [2]; 0.486 µM in assay [3]; 2 µM in [4]; 0.911 µM in assay [5]; 0.576 µM in assay [6]. For the same compound, the values for the GI50 in assay [7], in assay [8] and in assay [9] were 0.312 µM, 0.516 µM and 0.366 µM, respectively. Also, the TGI was 1.95 µM in [1]; 4.83 µM in assay [2]; 1.72 µM in assay [3]; 8.37 µM in assay [4]; 2.48 µM in [5]; 2.44 µM in assay [6]. The TGI in [7] was found to be 1.09 µM; in [8] it was 3.19 µM; in assay [9], 9.47 µM.

As to `CC[C@]12CCCN3CCc4c(n(c5ccccc45)C(=O)C1)[C@@H]32`, the TGI in [1] was over 56.2 µM; in assay [2], over 65.9 µM; in [3], over 100 µM; in assay [4], over 100 µM; in [5], over 67.9 µM; in [6] it was 7.2 µM. Further, the TGI was 63.7 µM in [7], over 75 µM in [8] and 78.4 µM in assay [9].

Turning to `C/C(=N\NC(=O)c1sc(=S)n(C)c1N)c1cc2ccccc2o1`, the GI50 was 14.9 µM in [1]; 4.58 µM in assay [2]; 13.4 µM in assay [3]; 10.3 µM in [4]; 28.1 µM in [5]; 15.5 µM in assay [6]. Moreover, the GI50 was 13.2 µM in assay [7], 14.4 µM in [8] and 17.3 µM in [9]. The TGI in assay [1] came out at 29.8 µM; in [2], 18.9 µM; in [3], 38.4 µM; in assay [4], 25.4 µM; in assay [5], 56.9 µM; in assay [6] it was 39 µM. The values for the TGI in assay [7], in assay [8] and in assay [9] were 27.8 µM, 37.4 µM and 42.6 µM, respectively.

For `CCCCCCCCCCCCNC(C)=O`, the TGI is 32.5 µM in assay [1]; 68 µM in assay [2]; 70 µM in assay [3]; 19.2 µM in assay [4]; 34.5 µM in assay [5]; 27.2 µM in assay [6]. Moreover, the results for the TGI in assay [7], in [8] and in [9] were 43.4 µM, 29.5 µM and 55.8 µM, respectively.

In the case of `CC(NS(=O)(=O)c1ccc([N+](=O)[O-])cc1)C(=O)O` (stereo not drawn), the TGI in [1], in assay [2], in assay [3], in [4], in assay [5] and in assay [6] was over 100 µM in each case. Moreover, the TGI in assay [7], in assay [8] and in assay [9] was over 100 µM each time.

`COc1cc(NS(C)(=O)=O)ccc1Nc1c2ccc([N+](=O)[O-])cc2nc2c(C)cccc12`: the GI50 is 0.362 µM in assay [1]; 0.226 µM in assay [2]; 0.371 µM in assay [3]; 0.111 µM in [4]; 0.717 µM in [5]; 1.07 µM in [6]. Also, the GI50 was 1.65 µM in assay [7], 0.256 µM in assay [8] and 0.311 µM in [9]. The TGI in assay [1] came to 6.04 µM; in [2], 2.92 µM; in [3], 4.29 µM; in assay [4] it was 1.68 µM; in [5] it was 7.07 µM; in [6], 2.9 µM. The TGI was determined as 6.35 µM in [7], 13.1 µM in assay [8] and 7.48 µM in assay [9].

For the compound `O=C[C@@H](CO)O[C@H](C=O)c1c[nH]c(=O)[nH]c1=O`, the TGI in assay [1] worked out at 1310 µM; in assay [2], 744 µM; in assay [3], 719 µM; in assay [4], 237 µM; in assay [5], 253 µM; in assay [6], 282 µM. In addition, the figures for the TGI in [7], in [8] and in assay [9] were 163 µM, 427 µM and 1310 µM, respectively.

For `Cc1cc(N(CCC#N)CCC#N)ccc1/C=C1N=C(/C=C\c2ccccc2)OC\1=O`, the TGI in [1], in assay [2], in assay [3], in [4], in assay [5] and in assay [6] was over 100 µM in each case. Also, the TGI in assay [7], in [8] and in [9] was over 100 µM each time.

Turning to `CCc1nc(N)nc(N)c1-c1ccc(NCCN)c([N+](=O)[O-])c1`, the TGI in assay [1] was over 100 µM; in [2] it was over 86.1 µM; in [3], over 100 µM; in [4], over 100 µM; in assay [5], 40.7 µM; in [6], over 51.1 µM. The TGI in assay [7] was over 100 µM; in assay [8] it was over 76.3 µM; in assay [9], over 89.7 µM.

Regarding `COC(=O)[C@@]12C(=O)C=CC(=O)[C@@H]1C1C(=CC2COC(C)=O)O[C@@H]2OC3(CCCCC3)O[C@H]12` (stereo partly drawn), the TGI in assay [1] was 18.7 µM; in assay [2], 37.4 µM; in assay [3], 23.9 µM; in assay [4] it was 21.2 µM; in assay [5], 30.2 µM; in assay [6], 6.29 µM. Also, the TGI in assay [7] was determined as 23.4 µM; in assay [8] it was 23.7 µM; in assay [9], 26.4 µM.

`COc1ccc2oc(=O)cc(C(c3ccc[nH]3)c3ccc[nH]3)c2c1`: the GI50 was 0.281 µM in assay [1]; 0.104 µM in assay [2]; 0.124 µM in assay [3]; 0.0985 µM in assay [4]; 0.783 µM in assay [5]; 0.348 µM in [6]. Moreover, the GI50 was 0.0902 µM in assay [7], 0.129 µM in [8] and 0.123 µM in assay [9]. In addition, the TGI came out at 11.5 µM in assay [1]; 0.437 µM in assay [2]; 13.1 µM in [3]; 2.83 µM in assay [4]; 17.7 µM in [5]; 5.88 µM in assay [6]. In addition, the TGI in [7] came to 0.44 µM; in assay [8], 16.3 µM; in [9], 11.8 µM.

For `CC1(C)N=C(N)N=C(N)N1c1cccc(CCCCc2cccc(S(=O)(=O)F)c2)c1`, the GI50 is 2.12 µM in [1]; 7.36 µM in assay [2]; 11.8 µM in [3]; 5.48 µM in [4]; 8.47 µM in assay [5]; 2.55 µM in assay [6]. For the same compound, the GI50 in [7] is 2.13 µM; in [8] it was 0.887 µM; in assay [9] it was 0.98 µM. For the same compound, the TGI in [1] is over 100 µM; in assay [2], over 100 µM; in assay [3], over 100 µM; in assay [4] it was 94 µM; in assay [5] it was 71.8 µM; in assay [6] it was 43.9 µM. For the same compound, the TGI in [7] was over 100 µM; in assay [8], 20.8 µM; in assay [9], 23.7 µM.

For the compound `CC1CC(C2=CC=CCS2)=Nc2ccccc2S1` (stereo not drawn), the TGI in assay [1], in [2], in [3], in assay [4], in assay [5] and in assay [6] was over 100 µM in each case. Besides, the figures for the TGI in assay [7], in assay [8] and in assay [9] were over 100 µM, over 100 µM and 78.6 µM, respectively.

As to `O=[N+]([O-])c1ccc(S(=O)(=O)Cc2ccccc2)c([N+](=O)[O-])c1`, the TGI in [1] is 2.98 µM; in assay [2], 31.1 µM; in assay [3], 2.92 µM; in assay [4] it was 3.38 µM; in assay [5], 6.2 µM; in assay [6] it was 2.81 µM. Further, the TGI in assay [7] was 3.4 µM; in assay [8], 14.5 µM; in [9] it was 21.2 µM.

`COC(=O)CCC(=O)C(=O)OC`: the GI50 was 33000 µM in assay [1]; 18500 µM in assay [2]; 16300 µM in assay [3]; 19300 µM in [4]; 37900 µM in [5]; 13400 µM in assay [6]. The GI50 is 30300 µM in [7], 26400 µM in assay [8] and 14800 µM in assay [9]. Also, the TGI in assay [2] amounted to 39700 µM; in assay [4], 82200 µM; in [6], 30500 µM; in assay [7], 95100 µM.

Turning to `O=C1c2ccccc2-c2c1c1ccccc1c(=O)n2CCCCNCCCn1c2c(c3ccccc3c1=O)C(=O)c1ccccc1-2`, the GI50 was 0.0318 µM in [1]; 1.49 µM in assay [2]; 0.0416 µM in [3]; 0.994 µM in [4]; 1.41 µM in [5]; 0.361 µM in [6]. The GI50 in assay [7] was 0.33 µM; in [8] it was 0.358 µM; in [9], 6.45 µM. Further, the TGI in assay [1] stood at 0.699 µM; in assay [2], 5.64 µM; in [3], 2.31 µM; in [4], 3.45 µM; in assay [5] it was 6.03 µM; in assay [6], 6.39 µM. In addition, the TGI in [7] is 7.08 µM; in assay [8], 6.93 µM; in assay [9], 28.3 µM.
